Columns and labels:
[1] = molecular target: human opioid receptor-like (ORL-1) (Homo sapiens, UniProt P41146); experiment: ORL-1 receptor [35S]GTPγS functional binding assay; type: biochemical
human μ-opioid receptors = human μ-opioid receptors (Homo sapiens, UniProt P35372); experiment: In vitro mu-opioid receptor binding assay ([3H]-diprenorphine displacement); settings: read-out: Mu opioid receptor Ki [Average ± Std Deviation]
[2] = molecular target: human kappa opioid receptor (Homo sapiens, UniProt P41145); experiment: In vitro kappa-opioid receptor binding assay ([3H]-U69,593 displacement)
delta opioid receptor = delta opioid receptor (Homo sapiens, UniProt P41143); experiment: In vitro delta-opioid receptor binding assay ([3H]-Naltrindole displacement)
CYP1A2 = molecular target: T1, CYP1A2 (Homo sapiens, UniProt P05177); experiment: biochemical
T1 sequence (P05177 1-516): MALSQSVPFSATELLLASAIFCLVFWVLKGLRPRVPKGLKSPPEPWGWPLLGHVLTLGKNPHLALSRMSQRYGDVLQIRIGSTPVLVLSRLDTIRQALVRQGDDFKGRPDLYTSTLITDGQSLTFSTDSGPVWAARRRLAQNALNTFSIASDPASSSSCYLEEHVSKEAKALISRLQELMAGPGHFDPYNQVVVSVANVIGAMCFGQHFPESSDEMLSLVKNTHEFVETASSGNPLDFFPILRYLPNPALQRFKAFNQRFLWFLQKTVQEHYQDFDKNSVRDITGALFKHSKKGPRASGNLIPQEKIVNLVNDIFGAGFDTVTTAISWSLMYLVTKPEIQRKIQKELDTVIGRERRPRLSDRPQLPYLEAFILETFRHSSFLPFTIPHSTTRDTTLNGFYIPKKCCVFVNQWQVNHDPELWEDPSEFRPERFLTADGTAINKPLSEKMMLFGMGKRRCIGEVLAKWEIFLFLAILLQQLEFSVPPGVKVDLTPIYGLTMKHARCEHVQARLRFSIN

CYP2C9 = CYP2C9 (Homo sapiens, UniProt P11712); experiment: biochemical
CYP2C19 = CYP2C19 (Homo sapiens, UniProt P33261); experiment: biochemical
CYP2D6 = CYP2D6 (Homo sapiens, UniProt P10635); experiment: biochemical
CYP3A4 = CYP3A4 (Homo sapiens, UniProt P08684); experiment: biochemical
Sequence of CYP3A4 (P08684 whole entry): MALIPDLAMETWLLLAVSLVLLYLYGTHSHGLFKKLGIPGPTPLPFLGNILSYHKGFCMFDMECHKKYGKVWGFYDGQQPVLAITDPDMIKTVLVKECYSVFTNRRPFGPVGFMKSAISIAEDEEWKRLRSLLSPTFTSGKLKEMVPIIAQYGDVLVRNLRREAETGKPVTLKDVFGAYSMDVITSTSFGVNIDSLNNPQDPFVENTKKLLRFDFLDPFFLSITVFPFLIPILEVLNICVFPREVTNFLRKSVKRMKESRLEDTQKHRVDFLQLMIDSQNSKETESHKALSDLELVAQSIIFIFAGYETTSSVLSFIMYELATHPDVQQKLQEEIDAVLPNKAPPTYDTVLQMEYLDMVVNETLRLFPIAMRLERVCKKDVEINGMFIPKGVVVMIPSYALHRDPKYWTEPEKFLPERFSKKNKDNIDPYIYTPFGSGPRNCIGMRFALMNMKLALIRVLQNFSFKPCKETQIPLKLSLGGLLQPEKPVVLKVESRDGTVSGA

Sequence of delta opioid receptor (P41143 whole entry): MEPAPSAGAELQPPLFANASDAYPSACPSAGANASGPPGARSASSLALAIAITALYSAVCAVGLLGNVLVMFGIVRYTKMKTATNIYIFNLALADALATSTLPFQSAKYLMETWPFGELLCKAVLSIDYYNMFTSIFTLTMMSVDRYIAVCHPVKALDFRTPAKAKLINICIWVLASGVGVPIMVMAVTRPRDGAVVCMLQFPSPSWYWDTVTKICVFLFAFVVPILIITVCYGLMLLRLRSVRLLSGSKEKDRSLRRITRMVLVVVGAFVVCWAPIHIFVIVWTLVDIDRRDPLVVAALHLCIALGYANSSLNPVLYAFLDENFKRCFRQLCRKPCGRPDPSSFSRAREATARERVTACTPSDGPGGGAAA
Sequence of CYP2C19 (P33261 whole entry): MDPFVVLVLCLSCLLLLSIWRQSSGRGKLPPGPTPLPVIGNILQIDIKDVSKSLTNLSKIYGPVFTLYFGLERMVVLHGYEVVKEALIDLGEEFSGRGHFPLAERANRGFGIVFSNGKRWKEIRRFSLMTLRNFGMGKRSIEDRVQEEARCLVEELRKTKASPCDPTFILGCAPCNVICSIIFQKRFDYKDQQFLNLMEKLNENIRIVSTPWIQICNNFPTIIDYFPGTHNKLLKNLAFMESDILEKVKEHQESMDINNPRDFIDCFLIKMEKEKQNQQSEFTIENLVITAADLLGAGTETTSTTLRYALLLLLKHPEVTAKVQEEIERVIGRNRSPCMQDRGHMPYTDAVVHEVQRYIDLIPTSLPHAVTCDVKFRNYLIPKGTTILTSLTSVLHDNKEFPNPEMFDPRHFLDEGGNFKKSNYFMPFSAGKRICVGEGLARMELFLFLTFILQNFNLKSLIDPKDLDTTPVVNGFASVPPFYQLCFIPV
Sequence of human kappa opioid receptor (P41145 whole entry): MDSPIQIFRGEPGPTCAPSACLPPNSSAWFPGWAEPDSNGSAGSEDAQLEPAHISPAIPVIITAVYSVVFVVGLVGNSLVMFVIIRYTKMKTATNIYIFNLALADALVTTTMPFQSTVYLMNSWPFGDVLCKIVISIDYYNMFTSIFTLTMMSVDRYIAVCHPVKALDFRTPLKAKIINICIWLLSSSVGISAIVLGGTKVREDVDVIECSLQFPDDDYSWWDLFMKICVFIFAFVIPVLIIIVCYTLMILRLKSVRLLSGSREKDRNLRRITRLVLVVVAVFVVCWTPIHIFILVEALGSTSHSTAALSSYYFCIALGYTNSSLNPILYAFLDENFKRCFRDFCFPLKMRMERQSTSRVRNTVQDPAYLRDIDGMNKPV
Sequence of human μ-opioid receptors (P35372 whole entry): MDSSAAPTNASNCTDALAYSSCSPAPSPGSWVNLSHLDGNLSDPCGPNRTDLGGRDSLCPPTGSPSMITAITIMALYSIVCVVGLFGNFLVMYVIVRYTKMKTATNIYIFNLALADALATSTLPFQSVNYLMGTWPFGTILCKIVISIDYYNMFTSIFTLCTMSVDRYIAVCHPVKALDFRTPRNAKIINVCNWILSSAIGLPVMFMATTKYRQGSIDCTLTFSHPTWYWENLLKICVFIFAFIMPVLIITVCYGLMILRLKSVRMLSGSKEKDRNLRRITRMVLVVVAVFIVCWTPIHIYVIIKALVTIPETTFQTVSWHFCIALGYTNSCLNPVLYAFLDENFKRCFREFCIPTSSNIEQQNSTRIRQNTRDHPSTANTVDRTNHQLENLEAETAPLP
Sequence of CYP2C9 (P11712 whole entry): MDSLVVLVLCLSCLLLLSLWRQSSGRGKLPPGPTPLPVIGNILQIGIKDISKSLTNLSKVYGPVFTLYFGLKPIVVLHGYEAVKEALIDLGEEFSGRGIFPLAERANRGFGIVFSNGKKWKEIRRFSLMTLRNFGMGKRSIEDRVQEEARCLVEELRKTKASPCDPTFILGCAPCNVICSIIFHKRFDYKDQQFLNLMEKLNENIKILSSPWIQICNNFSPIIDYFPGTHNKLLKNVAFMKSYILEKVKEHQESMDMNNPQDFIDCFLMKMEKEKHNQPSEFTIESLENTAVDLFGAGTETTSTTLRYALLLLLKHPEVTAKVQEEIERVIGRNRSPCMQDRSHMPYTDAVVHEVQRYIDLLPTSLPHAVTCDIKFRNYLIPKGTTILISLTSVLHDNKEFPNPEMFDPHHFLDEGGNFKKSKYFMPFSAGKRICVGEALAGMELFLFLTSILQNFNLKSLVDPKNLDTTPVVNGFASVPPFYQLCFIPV
Sequence of human opioid receptor-like (ORL-1) (P41146 whole entry): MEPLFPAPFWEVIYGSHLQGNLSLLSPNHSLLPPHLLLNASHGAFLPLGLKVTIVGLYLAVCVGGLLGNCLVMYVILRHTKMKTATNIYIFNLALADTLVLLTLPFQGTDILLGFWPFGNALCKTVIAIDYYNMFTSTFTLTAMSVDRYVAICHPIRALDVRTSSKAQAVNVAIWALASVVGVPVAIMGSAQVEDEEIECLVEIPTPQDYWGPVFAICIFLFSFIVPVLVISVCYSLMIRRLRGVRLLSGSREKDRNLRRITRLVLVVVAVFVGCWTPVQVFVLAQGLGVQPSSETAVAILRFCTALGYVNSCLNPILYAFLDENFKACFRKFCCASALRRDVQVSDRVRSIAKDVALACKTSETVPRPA
Sequence of CYP2D6 (P10635 whole entry): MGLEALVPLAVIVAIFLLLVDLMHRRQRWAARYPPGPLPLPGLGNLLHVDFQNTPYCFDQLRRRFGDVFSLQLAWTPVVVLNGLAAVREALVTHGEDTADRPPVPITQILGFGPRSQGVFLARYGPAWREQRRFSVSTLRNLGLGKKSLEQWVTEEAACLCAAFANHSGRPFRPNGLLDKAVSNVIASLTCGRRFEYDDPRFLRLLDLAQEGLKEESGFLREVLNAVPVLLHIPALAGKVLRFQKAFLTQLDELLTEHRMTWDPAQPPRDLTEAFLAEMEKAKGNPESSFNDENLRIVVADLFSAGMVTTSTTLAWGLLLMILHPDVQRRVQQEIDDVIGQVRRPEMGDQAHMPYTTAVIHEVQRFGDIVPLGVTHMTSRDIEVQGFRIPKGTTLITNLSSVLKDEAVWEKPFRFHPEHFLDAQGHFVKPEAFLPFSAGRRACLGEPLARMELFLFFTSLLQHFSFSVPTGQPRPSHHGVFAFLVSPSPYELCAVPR

| SMILES | EC50 [1] | Ki (human μ-opioid receptors) | Ki [2] | Ki (delta opioid receptor) | IC50 (CYP1A2) | IC50 (CYP2C9) | IC50 (CYP2C19) | IC50 (CYP2D6) | IC50 (CYP3A4) |
| --- | --- | --- | --- | --- | --- | --- | --- | --- | --- |
| CON=C(CCC(=O)O)c1nc2ccccc2n([C@H]2C[C@H]3CC[C@@H](C2)N3C2CC3CCCC(C3)C2)c1=O (stereo partly drawn) [Compound 14, 4-(4-((1R,3R)-8-(bicyclo[3.3.1]nonan-3-yl)-8-azabicyclo[3.2.1]octan-3-yl)-3-oxo-3,4-dihydroquinoxalin-2-yl)-4-(methoxyimino)butanoic acid] | 0.15 ± 0.014 µM | 2.3 ± 0.153 µM | 2.76 ± 0.245 µM | > 20 µM | > 20 µM | > 20 µM | > 20 µM | > 20 µM | > 20 µM |
| CO/N=C(\CCC(=O)O)c1nc2ccccc2n([C@H]2C[C@H]3CCC[C@@H](C2)N3C2CCCCCCCC2)c1=O [Compound 10, 4-[4-((1R,3R,7S)-9-cyclononyl-9-aza-bicyclo[3.3.1]non-3-yl)-3-oxo-3,4-dihydro-quinoxalin-2-yl]-4-methoxyimino-butyric acid] | 0.104 ± 0.012 µM | – | – | – | > 20 µM | > 20 µM | > 20 µM | > 20 µM | > 20 µM |
| CON=C(CCC(=O)O)c1nc2ccccc2n([C@H]2C[C@H]3COC[C@@H](C2)N3C2CC3CCCCC(C3)C2)c1=O (stereo partly drawn) [Compound 48] | 0.149 ± 0.029 µM | 15.6 µM | > 20 µM | > 20 µM | > 20 µM | > 20 µM | > 20 µM | > 20 µM | > 20 µM |
| C/C(=N\OCC(=O)O)c1nc2ccccc2n([C@H]2C[C@H]3CCC[C@@H](C2)N3C2CCCCCCCCC2)c1=O [Compound 21] | 0.239 ± 0.0254 µM | – | – | – | > 20 µM | > 20 µM | > 20 µM | > 20 µM | > 20 µM |
| O=C(O)CCC(=NO)c1nc2ccccc2n([C@H]2C[C@H]3CCC[C@@H](C2)N3C2CC3CCCC(C3)C2)c1=O (stereo partly drawn) [Compound 7, 4-[4-((1R,3R)—(S)-9-bicyclo[3.3.1]non-3-yl-9-aza-bicyclo[3.3.1]non-3-yl)-3-oxo-3,4-dihydro-quinoxalin-2-yl]-4-hydroxyimino-butyric acid] | – | – | – | – | > 20 µM | > 20 µM | > 20 µM | > 20 µM | > 20 µM |
| COCCO/N=C(\CCC(=O)O)c1nc2ccccc2n([C@H]2C[C@H]3CCC[C@@H](C2)N3C2CC3CCCCC(C3)C2)c1=O (stereo partly drawn) [Compound 56] | – | – | – | – | > 20 µM | > 20 µM | > 20 µM | > 20 µM | > 20 µM |
| CC(C)ON=C(CCC(=O)O)c1nc2ccccc2n([C@H]2C[C@H]3CC[C@@H](C2)N3C2CC3CCCCC(C3)C2)c1=O (stereo partly drawn) [Compound 67] | – | – | – | – | > 20 µM | > 20 µM | > 20 µM | > 20 µM | > 20 µM |
| CNC(=O)C(=NOCC(=O)O)c1nc2ccccc2n([C@H]2C[C@H]3CCC[C@@H](C2)N3C2CC3CCCCC(C3)C2)c1=O (stereo partly drawn) [Compound 54] | – | – | – | – | > 20 µM | > 20 µM | > 20 µM | > 20 µM | > 20 µM |
| CON=C(CCC(=O)O)c1nc2ccccc2n([C@H]2C[C@H]3CCC[C@@H](C2)N3C2CC3CCCC(C3)C2)c1=O (stereo partly drawn) [Compound 2, 4-[4-((1R,3R)—(S)-9-bicyclo[3.3.1]non-3-yl-9-aza-bicyclo[3.3.1]non-3-yl)-3-oxo-3,4-dihydro-quinoxalin-2-yl]-4-methoxyimino-butyric acid] | – | – | – | – | > 20 µM | > 20 µM | > 20 µM | > 20 µM | > 20 µM |
| NC(=O)/C(=N\OCC(=O)O)c1nc2ccccc2n([C@H]2C[C@H]3CCC[C@@H](C2)N3C2CC3CCCC(C3)C2)c1=O (stereo partly drawn) [Compound 40] | 0.113 ± 0.031 µM | 2.71 ± 0.285 µM | 1.7 ± 0.278 µM | > 20 µM | > 20 µM | > 20 µM | > 20 µM | > 20 µM | > 20 µM |
| O=C(O)C(=NOCCO)c1nc2ccccc2n([C@H]2C[C@H]3CCC[C@@H](C2)N3C2CC3CCCCC(C3)C2)c1=O (stereo partly drawn) [Compound 15] | – | – | – | – | > 20 µM | > 20 µM | > 20 µM | > 20 µM | > 20 µM |

Reference: patent US9040533B2, “Oxime-substituted-quinoxaline-type piperidine compounds as ORL-1 modulators” (priority 2012, dated 2015)
